Experimental findings from US20260021092A1, “STRUCTURE-BASED DESIGN OF A NOVEL CLASS OF DRUGS FOR NEURODEGENERATIVE DISEASE” (The Regents of the University of California, priority 2022, published 2026) are described below.

In data set [1] the target is T1, alpha-synuclein aggregates (Homo sapiens, UniProt P37840).
T1 construct: host or cells: transgenic C. elegans strain DDP1 (unc-54 promoter)
Nature of the data set: Alpha-synuclein aggregation in DDP1 C. elegans. The settings on record: for soluble versus insoluble alpha-synuclein in worm homogenate by Western blot: 100 μM on plates; for number of alpha-synuclein aggregates in the head region: 100 μM on plates from L1, day 6 of adulthood. It counts as in vivo. The source says: The DDP1 C. elegans strain overexpresses alpha-synuclein fused with yellow fluorescent protein (YFP) and cyan fluorescent protein (CFP)^22,23. FRET-positive fluorescent alpha-synuclein aggregates can then be visualized and quantified in the adult worms. […] PBS was used as a vehicle control. At day 6 of adulthood, the worms were visualized, and the number of aggregates were quantified by fluorescent microscopy. […] Treated worms were also homogenized for protein analysis by Western blot. Homogenate for each experimental condition was separated into insoluble pellet fractions (P) and soluble supernatant (S) fractions. For untreated worm homogenate, the majority of alpha-synuclein is found in the insoluble pellet.
For C. elegans experiments, the same protocol was used, except following the treatment period worms were harvested, flash frozen, then homogenized for protein extraction. The membrane was washed with TBST overnight before repeating the Western blot analysis for beta-actin (primary antibody anti-beta-actin (C4) (Santa Cruz Biotechnology, cat #sc-47778, lot #J1119; 1:500 dilution in 5% milk/TBST); horseradish peroxidase-conjugated secondary antibody (goat polyclonal anti-mouse IgG (Abcam; cat #ab205719, lot #GR3271082-2); 1:5000 dilution in 5% milk/TBST).
The DDP1 (uonExl [unc-54::αSyn::CFP+unc-54::αSyn::YFP(Venus)]) strain was acquired from the Caenorhabditis Genetics Center (CGC) and used for experiments. C. elegans were grown and maintained using standard conditions. Worms were synchronized using hypochlorite bleaching, hatched ovemight in M9 media (5 g/l NaCl, 6 g/l Na2HPO4, 3 g/l KH2PO4, […]) at 17° C., then cultured on plates with nematode growth medium (NGI; 17 g/l agar, 2.5 g/l peptone, 3 g/l NaCl 1 mM CaCl2, 1 mM MgSO4, 25 mM KH2PO4 pH 6, 5 μg/ml cholesterol) seeded with OP50 E. coli. Strains were maintained at 17° C. […] Treatment plates were then seeded with heat treated OP50 (30 min at 65° C.), according to the “NGM dead” method as previously published^36. Synchronized L1 worms were then added to the treatment plates and grown for 7 days. PBS was used as a control condition. 75 μM FUDR was added on the third day of growth. For imaging, worms were mounted onto 5% agar pads on glass slides, immobilized with 1% NaN3 solution, and imaged by fluorescent microscopy (GFP channel) using a ZEISS Axio Observer D1 fluorescence microscope. Alpha-synuclein aggregates in the head region were quantified.
A general note: In western blotting, separated proteins are transferred to a membrane and probed.

Data set [2] in a line: Brain penetration in mice (LC-MS/MRM of plasma and brain). The data set is classed as in vivo, C57BL/6J mice. The settings on record: 0.5 mg/kg tail vein injection, 1 hour after dosing, range of n=3; for concentration at 1 h: C57BL/6J, mouse, plasma, intravenous. As for the experimental part:
The compounds were administered by tail vein injection at a dose of 0.5 mg/kg of body weight to C57BL/6J mice (n=3 for each compound). […] To detect and quantify the drugs we used a sensitive, selective, and specific liquid chromatographic/tandem mass spectrometric multiple reaction monitoring (LC-MS/MRM) assay. The sample extraction protocol for plasma and brain was optimized with spiking experiments in which the authentic compounds were added to plasma and brain from drug-naive mice. […] Blood was collected by cardiac puncture and plasma was recovered as the supernatant after centrifugation (3000×g, 10 m) and stored frozen. Brains were collected by standard dissection and immediately frozen. To measure the average drug concentrations across the entire brains each left hemisphere (average wet weight 250 mg) was processed. The samples were spiked with the internal standard (IS, CNS-11F, 15 pmol in 15 μL of acetonitrile) and homogenized with a probe sonicator (Kontes microsonic cell disrupter, 30 sec) after the addition of acetonitrile/water (4:1, v/v, 2500 μL). The homogenates were divided evenly into three polypropylene microcentrifuge tubes (met) for triplicate measurements of each sample. Following centrifugation (16,100g, 5 min), the supernatants were transferred to clean mets and dried in a vacuum centrifuge. The pellets were treated with acetonitrile (25 μL) with vigorous mixing, followed by water (25 μL) with more vigorous mixing, followed by more water (50 μL) for a total volume of 100 μL. The samples were mixed again, centrifuged (16,100g, 5 min) and the supernatants were transferred to HPLC injector vials. […] These samples were processed as described above. Plasma samples (50 μL, in duplicate for each mouse) were spiked with the internal standard (IS, CNS-11F, 5 pmol in 5 μL of acetonitrile), and vigorously mixed after the addition of acetonitrile (500 μL). Following centrifugation (16,100g, 5 min), the supernatants were transferred to clean mcts and dried in a vacuum centrifuge. […] The effluent from the column was directed to an electrospray ion source (Agilent Jet Stream) connected to a triple quadrupole mass spectrometer (Agilent 6460) operating in the positive ion tandem mass spectrometric multiple reaction monitoring (MRM) mode in which the intensity of the transition of preselected parent ions to preselected fragment ions was recorded after signal optimization (collision energy, fragmentor voltage and collision cell accelerator voltage) with instrument manufacturer-supplied software (Mass Hunter). […] Peak areas were integrated and recorded, and a curve was constructed from the data obtained from the standards in which the ratio of drug peak area/IS peak area was plotted against the amount of drug in each sample. […]

The target of data set [3] is AD-tau fibrils seeding HEK293 cells expressing tau-K18 P301S-eYFP (Homo sapiens, UniProt P10636). The experiment in a line: Tau biosensor cell seeding assay. The data set is classed as cell-based. Also on record: dose or concentration left out as unconfirmed. The note with it: screen; final inhibitor concentration on the biosensor cells. The procedure:
Disaggregating molecules that produce active seeds are undesirable for therapy and are excluded from further study. HEK293T cells expressing CFP- or YFP-fused tau are transduced with exogenous AD tau fibrils.
Inhibitors were dissolved in DMSO. […] The number of seeded aggregates was determined by imaging the entire well of a 96-well plate in triplicate using a Celigo Image Cytometer (Nexcelom) in the YFP channel. […] The number of aggregates was normalized to the confluence of each well, and dose-response plots were generated by calculating the average and standard deviations from triplicate measurements.

Chain of AD-tau fibrils seeding HEK293 cells expressing tau-K18 P301S-eYFP (P10636 623-695 limits assumed, stated change not applied): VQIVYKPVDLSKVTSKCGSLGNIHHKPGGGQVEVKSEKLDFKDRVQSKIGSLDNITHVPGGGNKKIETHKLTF

For `Cc1cc(C)c(NC(=O)Cn2nc3c4c(cccc4c2=O)-c2ccccc2-3)c(C)c1` [CNS-11, N-mesityl-2-(3-oxoindeno[1,2,3-de]phthalazin-2(3H)-yl)acetamide], in data set [1], the “soluble versus insoluble alpha-synuclein in worm homogenate by Western blot” value is “solubilization of the alpha-synuclein” and the “number of alpha-synuclein aggregates in the head region” value was “reduction of total aggregates”. In data set [2], the “concentration in brain tissue” value is given as 6.9-21.5 ng/g of brain and the concentration at 1 h was in the range of 5 to 28.4 nM.
Take `Cc1cccc(C)c1NC(=O)Cn1nc(Cc2ccccc2)c2ccccc2c1=O` [CNS-11g, 2-(4-benzyl-1-oxophthalazin-2-yl)-N-(2,6-dimethylphenyl)acetamide]: in data set [1], the “soluble versus insoluble alpha-synuclein in worm homogenate by Western blot” value was “solubilization of the alpha-synuclein” and the “number of alpha-synuclein aggregates in the head region” value is given as “reduction of total aggregates”. Moreover, in data set [2], the “concentration in brain tissue” value is listed as 4.2-26.1 ng/g of brain and the concentration at 1 h fell in the range of 10.4 to 58.8 nM.
Turning to `O=C(O[C@@H]1Cc2c(O)cc(O)cc2O[C@@H]1c1cc(O)c(O)c(O)c1)c1cc(O)c(O)c(O)c1` [EGCG, epigallocatechin gallate], the “inhibition of seeding in tau biosensor cells (in words)” value in data set [3] is “prevents the formation of any seeds”.
